# In paper PMC5870190, “A three-in-one-bullet for oesophageal cancer: replication fork collapse, spindle attachment failure and enhanced radiosensitivity generated by a ruthenium(II) metallo-intercalator” (Chemical Science, 2017):
# Assays:
# [1] = tested on: OE21, OE33 or FLO-1 cells; assay: Clonogenic survival assay with IR, three oesophageal cancer cell lines; type: cell-based, human
# Protocol: Clonogenic survival assay. OE21, OE33 or FLO1 cells were treated with 2 µM Ru1 for 24 h before irradiation with 0-8 Gy using a 137Cs γ-irradiator (IBL637, CIS Bio Int.; dose rate = 0.809 Gy min−1). 1 h after irradiation, cells were detached using Trypsin and re-seeded in 6 well plates at a density of 300 – 20,000 cells/well in triplicate in an incrementally greater number of cells with increasing IR dose to ensure adequate colony formation. Cells were incubated for 7–14 days after re-seeding to allow colony formation before being fixed with 10% methanol, 10% acetic acid and stained with 0.4% methylene blue. OE33 cells required an additional formaldehyde fixation (4% in PBS, 5 mins) step before the addition of methylene blue solution or colony detachment occurred. Colonies containing 50 cells or greater were counted using a Gelcount instrument and accompanying software (Oxford Optronix). Plating efficiencies were determined for each treatment condition and normalised to an untreated control to provide the surviving fraction (S. F.). S.F. versus radiation dose curves were plotted in GraphPad Prism and fit using a second order polynomial function (R2 values > 0.99). Dose modifying factors (DMF) at a SF=0.1 were calculated using the equation: Dose modifying factor (DMF) = IR dose to give S.F. 0.1/IR dose plus compound to give S.F.0.1. […]
# [2] = tested on: OE21 cells; assay: DNA fibre assay (replication fork progression); type: cell-based, human; settings: Ru1 21 μM or dppz 7 μM during second (IdU) pulse, 30 min
# Protocol: DNA fibre assay. The DNA fibre assay was performed as described previously.5 Briefly, OE21 cells were labelled with 30 µM CldU for 30 mins and then 250 µM IdU for an additional 30 mins. Either Ru1 (21 µM) or dppz (7 µM) was added during the second (IdU) nucleotide step (30 mins). DNA replication was terminated using ice-cold PBS and cells lysed (200 mM Tris-HCl pH 7.4, 50 mM EDTA and 0.5% SDS). DNA fibres were spread onto glass slides, fixed with methanol:acetic acid (3:1) and denatured with 2.5 M HCl. After blocking with 2% BSA, fibres were stained with anti-rat and anti-mouse 5-bromo-2′- deoxyuridine (BrdU) that specifically recognise either CldU (Abcam, dilution 1:500) or IdU (BD Sciences, 1:100). Anti-rat Cy3 (Jackson Immuno Research, 1:300) and anti-mouse Alexa-488 (Molecular Probes, 1:300) were used as the respective secondary antibodies. CldU- and IdU-labelled tracts were visualised using a Leica DMRB microscope with a DFC360FX camera and tract length measured by ImageJ software. Statistical analysis was performed by GraphPad Prism software using an unpaired t-test.
# Western blotting. Treated samples were washed with cold PBS and lysed in RIPA (radioimmunoprecipitation assay) buffer containing protease inhibitors (10 μg/mL leupeptin, 2 μg/mL pepstatin, 50 μg/mL antipain, 2 μg/mL aprotinin, 20 μg/mL chyprostatin, 2 μg/mL benzamidine, 1 mM phenylmethanesulfonyl fluoride) and phosphatase inhibitors (50 mM NaF, 1 mM […]
# Bis-Tris gels and LDS-PAGE. Gels were transferred onto nitrocellulose membrane and probed with primary antibodies in 5% BSA (bovine serum albumin) solutions at the following dilutions: 1/1000 dilution for majority of Cell Signaling antibodies and γH2AX. 1/500 for anti-p-ATR and anti-cleaved caspase 3. 1/200 anti-Chk1. 1/5000-1/10,000 anti- α-tubulin or β-actin.
# Reactions were visualised with a suitable secondary antibody conjugated with horseradish peroxidase (1/5000 dilution, Thermo). […]
# [3] = tested on: OE33 human oesophageal adenocarcinoma; assay: MTT assay, OE33 cells; type: cell-based
# Protocol: MTT assay. OE21, FLO-1 or hSAEC1-KT cells were seeded in 96 well plates at 20,000 cells/well (for 24 h treatment) or 10,000 cells/well (for 72 h treatment) and allowed to adhere for 24 h before treatment. OE33 cells were seeded in 48 well plates at 40,000 cells/well (24 h treatment) or 20,000 cells/well (72 h treatment). Cancer cell lines were treated with chemicals dissolved in RPMI media for consistency. After incubation, 0.5 mg/ml MTT (thiazolyl blue tetrazolium bromide) dissolved in serum-free medium was added for 60 minutes and the formazan product eluted using acidified isopropanol.
# The absorbance at 540 nm was quantified by plate reader (reference wavelength 650 nm). The metabolic activity of the cell population was determined as a percentage of a negative (solvent) control. […]
# (§1) For the determination of mutation induction, from the untreated and each treated condition, 2x10^5 cells were plated in 10 x 100 mm dishes in selective media (regular media
# [4] = tested on: FLO-1 cells; assay: Micronuclei formation, FLO-1; type: cell-based, human; settings: FLO-1, 44 μM Ru1, 24 h incubation
# Protocol: Microscopy and immunofluorescence. Cells were seeded on ibidi 35 mm µ-dishes (Thistle Scientific), allowed to adhere for 24 h and treated as stated in the main text. Cell media was removed, cells washed with PBS and fixed with formaldehyde (4%, 10 mins). Cells were permeablised with Triton (0.5% in PBS, 5 mins) and washed with PBS. Samples were blocked with BSA (3% in PBS-T) for 1 h before incubation with primary antibody (either anti-α-tubulin or anti-γ H2AX, 1/500 dilution) in BSA (3% in PBS-T) for 1 h. Samples were washed 3x in PBS-T and incubated with Alexa Fluor-conjugated secondary antibodies (3% in PBS-T, 1 h, 1/250 dilution). After further washing (3x5 min PBS-T) samples were co-stained with DAPI (5 ng/ml, 2 min), fresh PBS added and visualised by confocal microscopy. Samples were visualised using a Zeiss LSM 780 or LSM 710 inverted confocal microscope and EC Plan-Neofluar 40x/1.30 Oil objectives. […]
# as §1
substance,measurement,setting,value
[Ru(phen)2(tpphz)]^2+ [Ru1],"surviving fraction (S.F.), single-agent","[1]; 2 μM, 24 h, no IR, all three cell lines",> 0.87
same,dose modification factor (DMF) at surviving fraction of 0.1,"[1]; Ru1 2 μM or sub-cytotoxic cisplatin (500 nM OE21 and OE33, 300 nM FLO-1), 24 h before IR, range over three cell lines",1.19–1.31
same,increase in completely stalled/terminated replication forks (CldU tract only) compared to mock-treated,[2],1.7 fold
same,IC50,"[3]; OE33, 24 h constant exposure",44.5 ± 3.5 µM
same,IC50,"[3]; OE33, 72 h constant exposure",27 ± 2.8 µM
same,"Cells with micronuclei, Percentage",[4],3.3%
